Source: BindingDB's records for doi:10.1007/s002130100844 (Case Western Reserve University, 2001)
Where “and” joins values, the source holds several entries; their conditions need not be identical. Equal values may be shown once.

Legend:
[1] = target: Beta-1 adrenergic receptor (Homo sapiens, UniProt P08588)
[2] = target: 5-hydroxytryptamine receptor 1E (Homo sapiens, UniProt P28566)
D(2) dopamine receptor = D(2) dopamine receptor (Rattus norvegicus, UniProt P61169)
[3] = target: Muscarinic acetylcholine receptor M1 (Homo sapiens, UniProt P11229)
[4] = target: Alpha-1B adrenergic receptor (Homo sapiens, UniProt P35368)
D(1B) dopamine receptor = D(1B) dopamine receptor (Homo sapiens, UniProt P21918)
[5] = target: Delta-type opioid receptor (Homo sapiens, UniProt P41143)
D(1A) dopamine receptor = D(1A) dopamine receptor (Homo sapiens, UniProt P21728)
[6] = target: Muscarinic acetylcholine receptor M5 (Homo sapiens, UniProt P08912)
[7] = target: Alpha-1A adrenergic receptor (Homo sapiens, UniProt P35348)
[8] = target: Sodium-dependent noradrenaline transporter (Homo sapiens, UniProt P23975)
[9] = target: 5-hydroxytryptamine receptor 7 (Homo sapiens, UniProt P34969)
[10] = target: Muscarinic acetylcholine receptor M4 (Homo sapiens, UniProt P08173)
[11] = target: 5-hydroxytryptamine receptor 5A (Homo sapiens, UniProt P47898)
[12] = target: 5-hydroxytryptamine receptor 1D (Homo sapiens, UniProt P28221)
[13] = target: Alpha-2A adrenergic receptor (Homo sapiens, UniProt P08913)
[14] = target: Alpha-2B adrenergic receptor (Homo sapiens, UniProt P18089)
[15] = target: Beta-2 adrenergic receptor (Homo sapiens, UniProt P07550)
[16] = target: Glutamate receptor ionotropic, NMDA 1 (Rattus norvegicus, UniProt P35439)
[17] = target: Sodium-dependent dopamine transporter (Bos taurus, UniProt P27922)
[18] = target: Muscarinic acetylcholine receptor M3 (Homo sapiens, UniProt P20309)
D(4) dopamine receptor = D(4) dopamine receptor (Rattus norvegicus, UniProt P30729)
Mu-type opioid receptor = Mu-type opioid receptor (Homo sapiens, UniProt P35372)
[19] = target: Sodium-dependent serotonin transporter (Homo sapiens, UniProt P31645)
[20] = target: Alpha-2C adrenergic receptor (Homo sapiens, UniProt P18825)
[21] = target: 5-hydroxytryptamine receptor 2C (Rattus norvegicus, UniProt P08909)
[22] = target: Gamma-aminobutyric acid type B receptor subunit 1 (UniProt Q9Z0U4)
Vasopressin V1b receptor = Vasopressin V1b receptor (Homo sapiens, UniProt P47901)
[23] = target: Kappa-type opioid receptor (Homo sapiens, UniProt P41145)
[24] = target: 5-hydroxytryptamine receptor 2A (Rattus norvegicus, UniProt P14842)

Sequence of Muscarinic acetylcholine receptor M1 (P11229 whole entry): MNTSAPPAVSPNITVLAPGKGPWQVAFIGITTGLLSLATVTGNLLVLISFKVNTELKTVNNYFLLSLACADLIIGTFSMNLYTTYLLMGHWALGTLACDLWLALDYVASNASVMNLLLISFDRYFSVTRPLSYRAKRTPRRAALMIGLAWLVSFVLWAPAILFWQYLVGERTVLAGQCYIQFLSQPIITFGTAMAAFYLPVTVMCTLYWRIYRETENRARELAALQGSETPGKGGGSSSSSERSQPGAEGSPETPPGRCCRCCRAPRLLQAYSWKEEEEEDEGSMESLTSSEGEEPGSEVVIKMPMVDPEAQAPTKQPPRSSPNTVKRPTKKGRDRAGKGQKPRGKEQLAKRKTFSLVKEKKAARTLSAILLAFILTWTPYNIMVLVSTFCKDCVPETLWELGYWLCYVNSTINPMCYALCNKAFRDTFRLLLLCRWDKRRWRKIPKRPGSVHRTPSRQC
Sequence of 5-hydroxytryptamine receptor 7 (P34969 whole entry): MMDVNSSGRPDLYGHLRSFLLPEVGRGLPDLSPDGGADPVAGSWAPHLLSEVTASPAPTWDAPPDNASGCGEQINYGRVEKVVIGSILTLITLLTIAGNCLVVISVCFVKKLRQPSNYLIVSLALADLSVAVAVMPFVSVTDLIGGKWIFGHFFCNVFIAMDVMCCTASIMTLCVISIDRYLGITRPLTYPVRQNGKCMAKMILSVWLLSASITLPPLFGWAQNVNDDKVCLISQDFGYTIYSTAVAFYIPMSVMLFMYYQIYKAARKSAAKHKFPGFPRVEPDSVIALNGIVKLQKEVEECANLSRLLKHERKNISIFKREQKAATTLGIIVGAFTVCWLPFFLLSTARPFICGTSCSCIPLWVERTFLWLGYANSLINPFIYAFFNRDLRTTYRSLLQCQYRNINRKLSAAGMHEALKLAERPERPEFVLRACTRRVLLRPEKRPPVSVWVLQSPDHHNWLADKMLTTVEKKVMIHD
Sequence of Muscarinic acetylcholine receptor M5 (P08912 whole entry): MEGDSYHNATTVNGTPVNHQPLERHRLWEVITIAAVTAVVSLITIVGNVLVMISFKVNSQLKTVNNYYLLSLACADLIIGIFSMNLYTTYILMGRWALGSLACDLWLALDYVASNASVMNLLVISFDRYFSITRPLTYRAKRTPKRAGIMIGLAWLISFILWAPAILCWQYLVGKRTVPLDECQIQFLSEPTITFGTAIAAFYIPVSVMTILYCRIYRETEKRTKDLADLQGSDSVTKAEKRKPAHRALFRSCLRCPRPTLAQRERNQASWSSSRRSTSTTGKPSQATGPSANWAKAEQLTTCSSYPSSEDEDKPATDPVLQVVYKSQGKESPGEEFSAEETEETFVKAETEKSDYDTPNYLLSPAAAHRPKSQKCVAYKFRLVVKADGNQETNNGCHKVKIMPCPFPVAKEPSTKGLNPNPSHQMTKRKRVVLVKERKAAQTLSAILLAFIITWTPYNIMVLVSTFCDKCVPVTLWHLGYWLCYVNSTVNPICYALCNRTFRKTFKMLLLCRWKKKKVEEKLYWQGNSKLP
Sequence of Muscarinic acetylcholine receptor M3 (P20309 whole entry): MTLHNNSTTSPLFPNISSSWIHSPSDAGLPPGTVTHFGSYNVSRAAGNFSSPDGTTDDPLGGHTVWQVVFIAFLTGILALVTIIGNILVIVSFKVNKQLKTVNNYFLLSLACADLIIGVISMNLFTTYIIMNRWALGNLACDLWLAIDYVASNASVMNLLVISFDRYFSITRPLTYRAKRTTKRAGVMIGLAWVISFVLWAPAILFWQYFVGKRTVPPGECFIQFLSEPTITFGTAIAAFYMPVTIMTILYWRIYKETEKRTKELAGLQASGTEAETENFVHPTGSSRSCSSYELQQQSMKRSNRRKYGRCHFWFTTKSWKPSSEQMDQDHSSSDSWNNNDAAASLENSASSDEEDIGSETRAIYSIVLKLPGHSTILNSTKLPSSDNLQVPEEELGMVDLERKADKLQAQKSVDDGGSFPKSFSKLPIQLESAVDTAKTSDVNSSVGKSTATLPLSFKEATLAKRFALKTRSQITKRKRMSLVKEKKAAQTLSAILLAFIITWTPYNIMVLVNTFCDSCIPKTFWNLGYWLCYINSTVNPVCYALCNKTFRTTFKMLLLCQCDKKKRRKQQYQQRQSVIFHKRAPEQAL
Sequence of Alpha-1B adrenergic receptor (P35368 whole entry): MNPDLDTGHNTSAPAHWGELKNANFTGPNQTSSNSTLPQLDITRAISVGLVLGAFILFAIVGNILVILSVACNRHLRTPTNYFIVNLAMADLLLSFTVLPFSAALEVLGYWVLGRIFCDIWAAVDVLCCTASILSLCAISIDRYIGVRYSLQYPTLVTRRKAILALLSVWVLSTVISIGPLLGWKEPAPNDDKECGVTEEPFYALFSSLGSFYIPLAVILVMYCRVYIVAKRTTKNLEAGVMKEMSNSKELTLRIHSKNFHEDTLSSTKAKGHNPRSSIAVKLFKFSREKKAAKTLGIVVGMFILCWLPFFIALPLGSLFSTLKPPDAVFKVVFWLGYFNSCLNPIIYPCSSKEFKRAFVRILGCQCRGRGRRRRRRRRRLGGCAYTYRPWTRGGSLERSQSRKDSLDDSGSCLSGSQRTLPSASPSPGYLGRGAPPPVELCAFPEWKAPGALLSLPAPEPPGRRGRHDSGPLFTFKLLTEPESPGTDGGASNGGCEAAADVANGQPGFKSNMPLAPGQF
Sequence of 5-hydroxytryptamine receptor 1D (P28221 whole entry): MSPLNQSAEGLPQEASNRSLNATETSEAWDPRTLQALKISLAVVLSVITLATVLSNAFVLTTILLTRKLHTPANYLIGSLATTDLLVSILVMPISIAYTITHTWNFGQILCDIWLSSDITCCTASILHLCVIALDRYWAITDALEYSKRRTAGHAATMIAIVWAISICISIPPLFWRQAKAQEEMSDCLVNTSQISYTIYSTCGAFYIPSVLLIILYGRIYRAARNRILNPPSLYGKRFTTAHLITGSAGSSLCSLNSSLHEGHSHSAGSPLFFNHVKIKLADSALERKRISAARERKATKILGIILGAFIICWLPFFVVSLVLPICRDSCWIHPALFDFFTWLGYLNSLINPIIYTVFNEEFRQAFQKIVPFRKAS
Sequence of Beta-1 adrenergic receptor (P08588 whole entry): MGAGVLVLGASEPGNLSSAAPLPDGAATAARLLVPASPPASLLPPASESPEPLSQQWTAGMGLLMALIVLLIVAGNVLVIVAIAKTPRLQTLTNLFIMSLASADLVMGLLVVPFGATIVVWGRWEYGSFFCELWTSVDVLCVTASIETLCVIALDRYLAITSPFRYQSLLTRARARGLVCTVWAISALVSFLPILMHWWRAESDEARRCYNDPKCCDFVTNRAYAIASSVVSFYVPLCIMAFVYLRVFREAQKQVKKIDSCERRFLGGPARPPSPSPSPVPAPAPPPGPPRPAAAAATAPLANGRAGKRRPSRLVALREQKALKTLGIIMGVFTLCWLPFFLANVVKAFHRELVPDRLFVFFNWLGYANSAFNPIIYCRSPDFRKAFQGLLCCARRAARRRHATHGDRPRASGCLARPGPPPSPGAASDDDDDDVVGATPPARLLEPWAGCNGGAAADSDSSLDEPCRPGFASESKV
Sequence of Alpha-2A adrenergic receptor (P08913 whole entry): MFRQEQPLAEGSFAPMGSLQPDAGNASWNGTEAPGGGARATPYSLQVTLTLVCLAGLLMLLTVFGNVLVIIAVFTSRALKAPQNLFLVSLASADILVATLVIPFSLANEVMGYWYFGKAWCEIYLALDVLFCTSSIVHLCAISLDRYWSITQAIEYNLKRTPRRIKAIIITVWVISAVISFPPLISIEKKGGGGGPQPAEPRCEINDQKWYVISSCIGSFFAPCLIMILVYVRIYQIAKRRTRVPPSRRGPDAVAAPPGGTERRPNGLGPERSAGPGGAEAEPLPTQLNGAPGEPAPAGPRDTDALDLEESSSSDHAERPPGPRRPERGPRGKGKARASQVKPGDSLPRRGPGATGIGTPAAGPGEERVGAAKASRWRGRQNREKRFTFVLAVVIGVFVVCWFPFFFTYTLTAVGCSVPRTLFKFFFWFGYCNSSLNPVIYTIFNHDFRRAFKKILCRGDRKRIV
Sequence of Muscarinic acetylcholine receptor M4 (P08173 whole entry): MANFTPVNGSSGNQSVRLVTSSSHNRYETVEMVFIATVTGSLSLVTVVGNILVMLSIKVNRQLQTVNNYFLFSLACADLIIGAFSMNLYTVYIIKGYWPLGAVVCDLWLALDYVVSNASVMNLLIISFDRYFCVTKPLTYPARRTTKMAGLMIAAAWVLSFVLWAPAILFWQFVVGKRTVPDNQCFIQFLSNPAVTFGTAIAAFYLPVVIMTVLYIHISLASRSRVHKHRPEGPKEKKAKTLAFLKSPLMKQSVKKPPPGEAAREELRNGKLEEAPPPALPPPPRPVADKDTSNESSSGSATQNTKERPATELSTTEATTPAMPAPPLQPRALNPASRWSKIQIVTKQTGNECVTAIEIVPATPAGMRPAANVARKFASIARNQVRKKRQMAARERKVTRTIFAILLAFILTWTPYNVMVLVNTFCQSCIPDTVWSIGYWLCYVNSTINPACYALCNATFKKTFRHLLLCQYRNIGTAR
Sequence of Alpha-2C adrenergic receptor (P18825 whole entry): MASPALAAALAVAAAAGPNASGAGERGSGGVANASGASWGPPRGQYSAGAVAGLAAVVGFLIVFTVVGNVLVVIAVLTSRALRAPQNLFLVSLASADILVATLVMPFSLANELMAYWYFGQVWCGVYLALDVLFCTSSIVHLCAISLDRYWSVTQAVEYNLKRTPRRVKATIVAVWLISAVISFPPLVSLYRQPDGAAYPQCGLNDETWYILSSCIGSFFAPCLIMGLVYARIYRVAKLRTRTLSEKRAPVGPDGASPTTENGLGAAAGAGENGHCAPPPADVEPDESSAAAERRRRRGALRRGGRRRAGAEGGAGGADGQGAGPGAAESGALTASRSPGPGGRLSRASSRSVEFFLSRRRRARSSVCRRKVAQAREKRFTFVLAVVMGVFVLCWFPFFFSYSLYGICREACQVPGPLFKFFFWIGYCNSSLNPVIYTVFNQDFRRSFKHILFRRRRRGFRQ

## CC(CF)NCC(O)COc1cccc2[nH]c3ccccc3c12 [Fluorocarazolol,(S)]
[1]
  Ki: 0.00045 µM and 0.000114 µM
[2]
  Ki: > 10 µM
D(2) dopamine receptor
  Ki: > 10 µM
[3]
  Ki: 2.73 µM and 1.75 µM
[4]
  Ki: 4.6 µM and 0.677 µM
D(1B) dopamine receptor
  Ki: > 10 µM
[5]
  Ki: > 10 µM
D(1A) dopamine receptor
  Ki: > 10 µM
[6]
  Ki: 4.88 µM and 5.89 µM
[7]
  Ki: 3.2 µM and 0.611 µM
[8]
  Ki: > 10 µM
[9]
  Ki: 7.07 µM and 6.4 µM
[10]
  Ki: 5.41 µM and > 10 µM
[11]
  Ki: > 10 µM
[12]
  Ki: 3.28 µM and 3.09 µM
[13]
  Ki: 3.36 µM and 2.87 µM
[14]
  Ki: > 10 µM and 8.85 µM
[15]
  Ki: 0.138 nM and 0.079 nM
[16]
  Ki: > 10 µM
[17]
  Ki: > 10 µM
[18]
  Ki: > 10 µM and 1.59 µM
D(4) dopamine receptor
  Ki: > 10 µM
Mu-type opioid receptor
  Ki: > 10 µM
[19]
  Ki: > 10 µM
[20]
  Ki: 1.89 µM and 4.4 µM
[21]
  Ki: > 10 µM
[22]
  Ki: > 10 µM
Vasopressin V1b receptor
  Ki: > 10 µM
[23]
  Ki: > 10 µM
[24]
  Ki: > 10 µM
